This passage reports Activity, IC50 and efflux ratio results from ChEMBL document CHEMBL5620406, “Synthesis and biological evaluation of novel pyrazole amides as potent mitochondrial complex I inhibitors” (Eur J Med Chem, 2023).

Molecules are shown by their SMILES. Activity calls are given as the source filed them. The rule behind the calls is not given here.

One data set deals with HCT-116. Description: Induction of mitochondrial dysfunction in human HCT-116 cells assessed as attenuation of basal oxygen consumption incubated for 24 hrs by Seahorse XFe24 analyzer. It counts as functional, cell-based. To be noted: dose 2-10 nM.
The nature of data set [1]: Acute toxicity in BALB/c mouse assessed as effect on AST level at 68 mg/kg, ip measured on day 14. It counts as organism-based. Conditions: in vivo, 336 h, time 14 day.
The subject of data set [2] is KG-1. Description: Induction of ROS generation in human KG-1 cells at 1 nM measured for 30 mins by DCFDA-staining based flow cytometry analysis. It counts as functional, cell-based. Background: Flow cytometry measures light scatter and fluorescence of single cells or particles in a stream.
Data set [3] can be described thus: Toxicity in NOD-SCID mouse xenografted with human KG-1 cells assessed as effect on lung damage at 5 mg/kg, ip qd administered 5 consecutive days per week for 24 days by H and E staining based analysis. The class given is organism-based. Conditions: in vivo, 576 h, time 24 day.
For a further data set, the target named is Cytochrome P450 2D6 (Homo sapiens, UniProt P10635). Nature of the data set: Inhibition of CYP2D6 in human liver microsomes incubated for 20 mins in presence of NADPH by LC/MS/MS analysis. The class given is ADME, Microsome.
Sequence of Cytochrome P450 2D6 (P10635 whole entry): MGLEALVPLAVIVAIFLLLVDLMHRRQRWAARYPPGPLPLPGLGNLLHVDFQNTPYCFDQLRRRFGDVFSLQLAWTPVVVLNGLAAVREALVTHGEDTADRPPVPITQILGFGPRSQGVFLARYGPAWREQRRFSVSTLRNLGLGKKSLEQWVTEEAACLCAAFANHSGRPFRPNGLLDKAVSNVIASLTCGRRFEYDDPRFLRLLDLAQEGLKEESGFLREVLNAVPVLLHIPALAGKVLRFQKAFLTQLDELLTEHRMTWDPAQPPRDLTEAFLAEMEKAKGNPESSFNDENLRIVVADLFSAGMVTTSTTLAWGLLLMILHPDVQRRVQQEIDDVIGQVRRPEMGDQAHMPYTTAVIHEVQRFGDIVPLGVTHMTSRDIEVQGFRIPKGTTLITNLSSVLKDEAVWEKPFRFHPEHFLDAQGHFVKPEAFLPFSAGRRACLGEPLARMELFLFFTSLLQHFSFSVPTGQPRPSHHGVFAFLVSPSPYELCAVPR
Data set [4] can be described thus: Toxicity in NOD-SCID mouse xenografted with human KG-1 cells assessed as effect on PLT level at 5 mg/kg, ip qd administered 5 consecutive days per week for 24 days. Conditions: in vivo, 576 h, time 24 day. The class given is organism-based. (Xenograft models place foreign cells or tissue in a host animal.)
Data set [5] has as its system KG-1. Nature of the data set: Antiproliferative activity against human KG-1 cells assessed as inhibition of cell growth incubated for 96 hrs by MTT assay. To be noted: KG-1, 96 h. The class given is functional, cell-based.
The nature of data set [6]: Toxicity in NOD-SCID mouse xenografted with human KG-1 cells assessed as effect on ALB level at 5 mg/kg, ip qd administered 5 consecutive days per week for 24 days. The class given is organism-based. To be noted: in vivo, 576 h, time 24 day.
Data set [7] can be described thus: Efflux ratio of apparent permeability across basolateral to apical membrane to apical to basolateral membrane in human Caco-2 cells incubated for 120 mins by LC-MS/MS analysis. It counts as ADME, cell-based.

By IC50 is commonly meant the midpoint of a concentration-inhibition curve. For orientation: efflux ratio means a quotient of directional permeabilities that is used to spot active efflux. As for `Cc1cc(C(=O)Nc2ccc(OC(F)(F)F)cc2)nn1Cc1cccc(N2CCN(C(=O)C3CC3)CC2)c1`, the Activity result is “Dose-Dependent Effect” with HCT-116; “Non-Toxic” in data set [1]; “Non-Toxic” in data set [3]; “Non-Toxic” in data set [4]; “Non-Toxic” in data set [6]. Further, the result in the data set with KG-1 [2] was Active. Moreover, the 50% inhibitory concentration (IC50) on Cytochrome P450 2D6 is more than 10000 nM; in the data set with KG-1 [5] it was 5.81 nM. In addition, the efflux ratio at 2 h in [7] is 0.57.
Turning to `Cc1cc(C(=O)Nc2ccc(C(F)(F)F)cc2)nn1Cc1cccc(N2CCN(C(=O)C3CC3)CC2)c1`, the Activity result is “Dose-Dependent Effect” in the data set on HCT-116; “Non-Toxic” in [1]; “Non-Toxic” in data set [3]; “Non-Toxic” in data set [4]; “Non-Toxic” in data set [6]. Moreover, the result in the data set on KG-1 [2] was Active. Besides, the IC50 at Cytochrome P450 2D6 was more than 10000 nM; in the data set with KG-1 [5] it was 3.9 nM. In [7], the efflux ratio at 2 h was 0.53.
